# In article PMC8795677 (Frontiers in Chemistry, 2022):
# “Also recorded” adds a separate entry of the source.
# Columns and labels:
# [1] = biological target: T1, mGlu1(N264H) mutant (Rattus norvegicus, UniProt P23385, N264H); parameters: method as in Ojima et al., 2021; conditions: previously reported; ref Ojima et al., 2021; cited from earlier work
# T1 construct: expressed in transfected cells; host or cells: HEK293
# [2] = biological target: T2, mGlu1 V405H/D322C/D324H (HCH) mutant (Rattus norvegicus, UniProt P23385, D322C/D324H/V405H); experiment: Fluorescent Ca2+ imaging in transfected HEK293 cells, HCH mutant; assay type: cell-based; conditions: for activation of HCH mutant (Δratio): secondary screening, 3 μM metal ion or complex
# T2 construct: expressed in transfected cells; host or cells: HEK293
# [3] = biological target: T3, mGlu1 E72A/E325C mutant (Rattus norvegicus, UniProt P23385, E325C/E72A); experiment: Fluorescent Ca2+ imaging in transfected HEK293 cells, E72A/E325C mutant; assay type: cell-based; conditions: 1 μM CuCl2, compared with E325C
# T3 construct: expressed in transfected cells; host or cells: HEK293
# [4] = biological target: T4, mGlu1 Q73H/E325C mutant (Rattus norvegicus, UniProt P23385, E325C/Q73H); experiment: Fluorescent Ca2+ imaging in transfected HEK293 cells, Q73H/E325C mutant; assay type: cell-based; conditions: 1 μM CuCl2
# T4 construct: expressed in transfected cells; host or cells: HEK293
# [5] = biological target: T5, mGlu1 Q73H/D324H/E325C mutant (Rattus norvegicus, UniProt P23385, D324H/E325C/Q73H); experiment: Fluorescent Ca2+ imaging in transfected HEK293 cells, Q73H/D324H/E325C mutant; assay type: cell-based; conditions: for activation of Q73H/D324H/E325C mutant (Δratio): primary screening, 3 μM metal ion or complex
# T5 construct: expressed in transfected cells; host or cells: HEK293
# [6] = biological target: T6, WT mGlu1 (Rattus norvegicus, UniProt P23385); experiment: Fluorescent Ca2+ imaging (Fura-2) in transfected HEK293 cells, WT mGlu1; assay type: cell-based; conditions: at the concentration of the mutant's EC50 (1.5 µM Cu^2+; 0.44 µM Zn^2+)
# T6 construct: expressed in transfected cells; host or cells: HEK293
# [7] = biological target: T1, mGlu1(N264H) mutant; experiment: Fluorescent Ca2+ imaging in transfected HEK293 cells, N264H mutant; assay type: cell-based; conditions: for activation of N264H mutant (Δratio): heat map: 3 μM metal ion or complex
# [8] = biological target: T7, mGlu1 V405C/D322H/D324H (CHH) mutant (Rattus norvegicus, UniProt P23385, D322H/D324H/V405C); experiment: Fluorescent Ca2+ imaging in transfected HEK293 cells, CHH mutant; assay type: cell-based; conditions: secondary screening, 3 μM metal ion or complex
# T7 construct: expressed in transfected cells; host or cells: HEK293
# [9] = biological target: T8, mGlu1 E325C mutant (Rattus norvegicus, UniProt P23385, E325C); experiment: Fluorescent Ca2+ imaging in transfected HEK293 cells, E325C mutant; assay type: cell-based; conditions: for activation / metal selectivity of E325C mutant (Δratio): heat map: 3 μM metal ion or complex
# T8 construct: expressed in transfected cells; host or cells: HEK293
# [10] = biological target: T9, mGlu1 D324H/E325C mutant (Rattus norvegicus, UniProt P23385, D324H/E325C); experiment: Fluorescent Ca2+ imaging in transfected HEK293 cells, D324H/E325C mutant; assay type: cell-based; conditions: 1 μM CuCl2
# T9 construct: expressed in transfected cells; host or cells: HEK293
# [11] = biological target: T10, mGlu1 Q73A/E325C mutant (Rattus norvegicus, UniProt P23385, E325C/Q73A); experiment: Fluorescent Ca2+ imaging in transfected HEK293 cells, Q73A/E325C mutant; assay type: cell-based; conditions: 1 μM CuCl2, compared with E325C
# T10 construct: expressed in transfected cells; host or cells: HEK293
# [12] = biological target: T11, mGlu1 H55F/E325C mutant (Rattus norvegicus, UniProt P23385, E325C/H55F); experiment: Fluorescent Ca2+ imaging in transfected HEK293 cells, H55F/E325C mutant; assay type: cell-based; conditions: 1 μM CuCl2, compared with E325C
# T11 construct: expressed in transfected cells; host or cells: HEK293
# [13] = biological target: T12, mGlu1 Q73H/D324H mutant (Rattus norvegicus, UniProt P23385, D324H/Q73H); experiment: Fluorescent Ca2+ imaging in transfected HEK293 cells, Q73H/D324H mutant; assay type: cell-based; conditions: 1 μM CuCl2
# T12 construct: expressed in transfected cells; host or cells: HEK293
# [14] = biological target: T13, mGlu1 V405H/D322H/D324C (HHC) mutant (Rattus norvegicus, UniProt P23385, D322H/D324C/V405H); experiment: Fluorescent Ca2+ imaging in transfected HEK293 cells, HHC mutant; assay type: cell-based; conditions: primary screening, 3 μM metal ion or complex
# T13 construct: expressed in transfected cells; host or cells: HEK293
# [15] = biological target: T14, mGlu1 V405H/D322C mutant (Rattus norvegicus, UniProt P23385, D322C/V405H); experiment: Fluorescent Ca2+ imaging in transfected HEK293 cells, V405H/D322C mutant; assay type: cell-based; conditions: compared with HCH mutant
# T14 construct: expressed in transfected cells; host or cells: HEK293
# [16] = biological target: T15, mGlu1 D322C/D324H mutant (Rattus norvegicus, UniProt P23385, D322C/D324H); experiment: Fluorescent Ca2+ imaging in transfected HEK293 cells, D322C/D324H mutant; assay type: cell-based; conditions: compared with HCH mutant
# T15 construct: expressed in transfected cells; host or cells: HEK293
# [17] = biological target: T16, mGlu1 V405H/D324H mutant (Rattus norvegicus, UniProt P23385, D324H/V405H); experiment: Fluorescent Ca2+ imaging in transfected HEK293 cells, V405H/D324H mutant; assay type: cell-based; conditions: compared with HCH mutant
# T16 construct: expressed in transfected cells; host or cells: HEK293
# [18] = biological target: T17, mGlu1 H55/P58H/N264C mutant (Rattus norvegicus, UniProt P23385, N264C/P58H); experiment: Fluorescent Ca2+ imaging in transfected HEK293 cells, H55/P58H/N264C mutant; assay type: cell-based; conditions: primary screening, 3 μM metal ion or complex
# T17 construct: expressed in transfected cells; host or cells: HEK293
# T17 sequence (P23385 19-1199 P58H/N264C): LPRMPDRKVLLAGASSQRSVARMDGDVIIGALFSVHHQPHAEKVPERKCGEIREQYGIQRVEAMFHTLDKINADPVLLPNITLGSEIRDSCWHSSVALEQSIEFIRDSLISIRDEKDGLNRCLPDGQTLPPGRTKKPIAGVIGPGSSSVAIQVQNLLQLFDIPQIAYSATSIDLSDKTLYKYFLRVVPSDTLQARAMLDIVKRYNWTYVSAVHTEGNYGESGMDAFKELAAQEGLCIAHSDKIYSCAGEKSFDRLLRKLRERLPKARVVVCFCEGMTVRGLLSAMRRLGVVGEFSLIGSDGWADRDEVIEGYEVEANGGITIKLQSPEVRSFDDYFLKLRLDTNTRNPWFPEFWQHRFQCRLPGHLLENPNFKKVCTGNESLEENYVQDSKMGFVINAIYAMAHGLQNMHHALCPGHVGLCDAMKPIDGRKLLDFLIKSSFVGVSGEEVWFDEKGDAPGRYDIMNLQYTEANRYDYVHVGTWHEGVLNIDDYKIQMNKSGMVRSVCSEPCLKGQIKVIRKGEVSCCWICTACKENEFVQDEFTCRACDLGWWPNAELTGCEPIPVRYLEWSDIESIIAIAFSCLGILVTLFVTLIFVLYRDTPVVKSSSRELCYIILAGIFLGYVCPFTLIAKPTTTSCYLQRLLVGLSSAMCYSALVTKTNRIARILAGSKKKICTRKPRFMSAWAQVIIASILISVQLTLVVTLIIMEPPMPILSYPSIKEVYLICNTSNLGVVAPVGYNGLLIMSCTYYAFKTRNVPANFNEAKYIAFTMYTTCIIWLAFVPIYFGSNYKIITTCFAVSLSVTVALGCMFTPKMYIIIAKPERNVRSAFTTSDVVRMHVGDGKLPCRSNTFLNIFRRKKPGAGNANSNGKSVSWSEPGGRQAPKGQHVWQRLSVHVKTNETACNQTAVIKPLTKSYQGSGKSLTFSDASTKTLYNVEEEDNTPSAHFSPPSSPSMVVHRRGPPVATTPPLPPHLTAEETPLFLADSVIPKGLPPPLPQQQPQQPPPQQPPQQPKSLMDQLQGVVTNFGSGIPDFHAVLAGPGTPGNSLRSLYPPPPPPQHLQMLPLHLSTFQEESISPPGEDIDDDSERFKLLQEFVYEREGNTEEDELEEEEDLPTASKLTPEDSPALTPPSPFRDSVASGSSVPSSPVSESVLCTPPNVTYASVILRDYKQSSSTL
# T1 sequence (P23385 19-1199 N264H): as the sequence (P23385 19-1199 P58H/N264C) above, with H40P, C246H counted along it
# T2 sequence (P23385 19-1199 D322C/D324H/V405H): as the sequence (P23385 19-1199 P58H/N264C) above, with H40P, C246N, D304C, D306H, V387H counted along it
# T13 sequence (P23385 19-1199 D322H/D324C/V405H): as the sequence (P23385 19-1199 P58H/N264C) above, with H40P, C246N, D304H, D306C, V387H counted along it
# T8 sequence (P23385 19-1199 E325C): as the sequence (P23385 19-1199 P58H/N264C) above, with H40P, C246N, E307C counted along it
# T5 sequence (P23385 19-1199 Q73H/D324H/E325C): as the sequence (P23385 19-1199 P58H/N264C) above, with H40P, Q55H, C246N, D306H, E307C counted along it
# T7 sequence (P23385 19-1199 D322H/D324H/V405C): as the sequence (P23385 19-1199 P58H/N264C) above, with H40P, C246N, D304H, D306H, V387C counted along it
# T6 sequence (P23385 19-1199): as the sequence (P23385 19-1199 P58H/N264C) above, with H40P, C246N counted along it
# T12 sequence (P23385 19-1199 Q73H/D324H): as the sequence (P23385 19-1199 P58H/N264C) above, with H40P, Q55H, C246N, D306H counted along it
# T10 sequence (P23385 19-1199 Q73A/E325C): as the sequence (P23385 19-1199 P58H/N264C) above, with H40P, Q55A, C246N, E307C counted along it
# T15 sequence (P23385 19-1199 D322C/D324H): as the sequence (P23385 19-1199 P58H/N264C) above, with H40P, C246N, D304C, D306H counted along it
# T4 sequence (P23385 19-1199 Q73H/E325C): as the sequence (P23385 19-1199 P58H/N264C) above, with H40P, Q55H, C246N, E307C counted along it
# T9 sequence (P23385 19-1199 D324H/E325C): as the sequence (P23385 19-1199 P58H/N264C) above, with H40P, C246N, D306H, E307C counted along it
# T14 sequence (P23385 19-1199 D322C/V405H): as the sequence (P23385 19-1199 P58H/N264C) above, with H40P, C246N, D304C, V387H counted along it
# T16 sequence (P23385 19-1199 D324H/V405H): as the sequence (P23385 19-1199 P58H/N264C) above, with H40P, C246N, D306H, V387H counted along it
# T11 sequence (P23385 19-1199 H55F/E325C): as the sequence (P23385 19-1199 P58H/N264C) above, with H37F, H40P, C246N, E307C counted along it
# T3 sequence (P23385 19-1199 E72A/E325C): as the sequence (P23385 19-1199 P58H/N264C) above, with H40P, E54A, C246N, E307C counted along it
Compound,activation of mGlu1(N264H) mutant [1],activation of HCH mutant (Δratio) [2],activation of Q73H/D324H/E325C mutant (Δratio) [5],activation of WT mGlu1 in dose dependency [6],activation of N264H mutant (Δratio) [7],activation of CHH mutant (Δratio) [8],activation / metal selectivity of E325C mutant (Δratio) [9],activation of V405H/D322H/D324C (HHC) mutant (Δratio) [14],other results
[Cd+2] [Cd^2+],failed to activate,moderately,,,,,,,
"[Cu+2] [Cu^2+, CuCl2]",failed to activate,not activated at all; also recorded: insensitive,strongly activated,not activated,not activated,strongly activated,high selectivity,,"Cu^2+-induced response (Δratio) of E72A/E325C mutant [3]: drastically decreased; Cu^2+-induced response (Δratio) of Q73H/E325C mutant [4]: prominent Cu^2+-induced responses; EC50 ([5]; HEK293 cells, Q73H/D324H/E325C mutant, dose dependency, read-out: EC50 of activation (Δratio, [Ca2+]i)): 1.5 µM; Cu^2+-induced response (Δratio) of E325C single mutant ([9]; 1 μM CuCl2): maintained; EC50 ([9]; HEK293 cells, E325C mutant, dose dependency, read-out: EC50 of activation (Δratio, [Ca2+]i)): 0.22 µM; activation of E325C mutant by Cu^2+ in the co-presence of Pd (bpy) ([9]; [CuCl2] = 1 μM, [Pd(bpy)] = 3 μM): impaired; cell-specific activation of E325C-expressing cells in mixed culture ([9]; three HEK293 cell types on one coverslip, sequential perfusion 60 s, 1 μM CuCl2): selectively activated; Cu^2+-induced response (Δratio) of D324H/E325C mutant [10]: prominent Cu^2+-induced responses; sensitivity to Cu^2+ (Δratio) of Q73A/E325C mutant [11]: slightly affected; Cu^2+-induced response (Δratio) of H55F/E325C mutant [12]: drastically decreased; Cu^2+-induced response (Δratio) of Q73H/D324H mutant [13]: loss in sensitivity"
[Ni+2] [Ni^2+],failed to activate,moderately,moderate sensitivity,,,strongly activated,,showed sensitivity; also recorded: activated,
[Pd+2] [Pd^2+],failed to activate,,,,,strongly activated,,,
"[Zn+2] [Zn^2+, ZnCl2]",failed to activate,activated strongly,,not activated at all,not activated,strongly activated,not activated,,"Zn^2+-induced response (Δratio) of V405H/D322C mutant [15]: significantly impaired; Zn^2+-induced response (Δratio) of D322C/D324H mutant [16]: significantly impaired; Zn^2+-induced response (Δratio) of V405H/D324H mutant [17]: significantly impaired; EC50 ([2]; HEK293 cells, HCH mutant, dose dependency, read-out: EC50 of activation (Δratio, [Ca2+]i)): 0.44 µM; activation of HCH mutant by Zn^2+ in the co-presence of Cu^2+ ([2]; [ZnCl2] = 3 μM, [CuCl2] = 1 μM): impaired; cell-specific activation of HCH-expressing cells in mixed culture ([2]; three HEK293 cell types on one coverslip, sequential perfusion 60 s, 3 μM ZnCl2): selectively activated"
"Pd-2,2′-bipyridine [Pd (bpy)]",selective activation,not activated at all; also recorded: insensitive,not activated,,selectively activated,,not activated,activated,"activation of N264H mutant by Pd(bpy) in the co-presence of Cu2+ or Zn2+ ([7]; [Pd(bpy)] = 3 μM, [CuCl2] = 1 μM, [ZnCl2] = 3 μM): did not affect; cell-specific activation of N264H-expressing cells in mixed culture ([7]; three HEK293 cell types on one coverslip, sequential perfusion 60 s, 3 μM Pd (bpy)): selectively activated; activation of H55/P58H/N264C mutant (Δratio) [18]: activated"
